The record followed here is patent US6222035A, “[1,2,4] triazolo [1,5-C] pyrimidine derivatives” (Kyowa Hakko Kogyo Co., Ltd., priority 1997, dated 2001).

Counter-ions that a name gives are not always drawn.

Test [1] has as its system CGS 21680-induced catalepsy in mice. Put plainly: Activity on CGS 21680-induced Catalepsy. It counts as in vivo, mouse (male ddY). Conditions: 10 mg/kg oral; for Total score (catalepsy): 10 animals, maximum 50 points, control 48; for Number of Animals showing remission: catalepsy score 4 points or less in 10 cases; for inhibition in vivo at 10 mg/kg: Mus musculus, CGS 21680-induced catalepsy, read-out: Remission ratio (%). A digest of the protocol:
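Male ddY mice (5 weeks, 10 per group) received CGS 21680 10 μg/20 μl intracerebroventricularly; test compounds given orally at 10 mg/kg in 0.3% Tween 80 suspension. Catalepsy scored 1 h after dosing on a 4.5 cm bar; total group score (maximum 50) compared with control; ≤4 per animal counted as remission.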

In another test the target is T1, adenosine A2A receptor (Rattus norvegicus, UniProt P30543).
T1 construct: from tissue; host or cells: rat corpus striatum, washed membrane suspension
T1 sequence (P30543 whole entry): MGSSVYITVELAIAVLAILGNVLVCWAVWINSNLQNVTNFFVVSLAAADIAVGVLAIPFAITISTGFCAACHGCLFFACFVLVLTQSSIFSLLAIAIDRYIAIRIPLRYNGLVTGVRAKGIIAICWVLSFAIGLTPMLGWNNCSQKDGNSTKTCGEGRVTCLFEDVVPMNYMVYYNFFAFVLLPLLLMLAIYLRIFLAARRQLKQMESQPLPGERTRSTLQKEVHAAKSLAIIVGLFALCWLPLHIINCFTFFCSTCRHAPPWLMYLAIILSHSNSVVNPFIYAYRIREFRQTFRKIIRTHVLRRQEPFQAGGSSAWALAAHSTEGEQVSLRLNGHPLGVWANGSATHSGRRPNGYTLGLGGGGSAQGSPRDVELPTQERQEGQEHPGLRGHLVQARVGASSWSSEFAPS
In words: Adenosine receptor binding activity (adenosine A2A receptor binding test), 3H-CGS 21680 binding. To be noted: 2 h; 10^-7 M; read-out: A2A receptor inhibition ratio (%). As to the method:
Adenosine receptor binding activity (adenosine A2A receptor binding test) This test was carried out by slightly modifying the method of Bruns et al. [Molecular Pharmacology, 29: 331 (1986)].
Corpus striatum of a rat was suspended in an ice-cooled 50 mM tris(hydroxymethyl)aminomethane hydrochloride (hereinafter referred to as "Tris-HCl") buffer (pH 7.7) using Polytron Homogenizer (manufactured by Kinematica Co.). The suspension was centrifuged (50,000×g, 10 minutes), and the obtained precipitate was re-suspended in the same amount of 50 mM Tris-HCl buffer. The suspension was centrifuged under the same conditions, and the final precipitate was suspended in 50 mM Tris-HCl [containing 10 mM magnesium chloride and 0.02 unit/mg tissue of adenosine deaminase (manufactured by Sigma Co.)] to give a tissue concentration of 5 mg (wet weight)/ml.
To 1 ml of the tissue suspension thus prepared were added 50 μl of tritium-labeled CGS 21680 {^3 H-2-[p-(2-carboxyethyl)phenethylamino]-5'-N-ethylcarboxamido)adenosine: 40 Ci/mmol; manufactured by New England Nuclear Co.[The Journal of Pharmacology and Experimental Therapeutics, 251: 888 (1989)]} (final concentration:4.0 nM) and 50 μl of a test compound. The resulting mixture was allowed to stand for 120 minutes at 25° C., and then rapidly filtered by suction through a glass fiber filter (GF/C, manufactured by Whatman Co.) The filter was immediately washed three times with […] of an ice-cooled 50 mM Tris-HCl buffer, and transferred to a vial, a scintillator (EX-H , manufactured by Wako Pure Chemical Industries, Ltd.) was added thereto, and the radioactivity on the filter was determined with a liquid scintillation counter (manufactured by Packard Instrument Co.) […]
The inhibition ratio of the test compound against the A2A receptor binding (^3 H-CGS 21680 binding) was calculated by the following equation:
Inhibition ratio (%)={1-(Amount of the binding in the presence of the test compound-Amount of the nonspecific binding)/(Amount of the total binding-Amount of the nonspecific binding)}×100
(Note) Amount of the total binding means the amount of radioactivity of ^3 H-CGS 21680 bound in the absence of the test compound. Amount of the nonspecific binding means the amount of radioactivity of ^3 H-CGS 21680 bound in the presence of 100 μM cyclopentyladenosine (CPA, manufactured by Sigma Co.) Amount of the binding in the presence of the test compound means the amount of radioactivity of ^3 H-CGS 21680 bound in the presence of the test compound at various levels of concentrations.

With `CCOCCN1CCN(c2cc3nc(-c4ccco4)nn3c(N)n2)CC1` [Compound 96, 5-Amino-7-(4-(2-ethoxyethyl)piperazinyl)-2-(2-furyl)[1,2,4]triazolo[1,5-c]pyrimidine], in test [1], the “Total score (catalepsy)” value is listed as 7, the “Number of Animals showing remission” value was 9 and the inhibition in vivo at 10 mg/kg is 86%. Also, the inhibition at 0.1 µM on adenosine A2A receptor was 58%.

In the case of `COc1cc(CN2CCN(c3cc4nc(-c5ccco5)nn4c(N)n3)CC2)cc(OC)c1OC` [Compound 77, 5-Amino-2-(2-furyl)-7-(4-(3,4,5-trimethoxybenzyl)piperazinyl)[1,2,4]triazolo[1,5-c]pyrimidine], in test [1], the “Total score (catalepsy)” value was found to be 21, the “Number of Animals showing remission” value is on record as 9 and the inhibition in vivo at 10 mg/kg stood at 54%. In addition, the inhibition at 0.1 µM at adenosine A2A receptor turned out to be 77%.

Consider `CC(C)OCCCN1CCN(c2cc3nc(-c4ccco4)nn3c(N)n2)CC1` [Compound 101, 5-Amino-2-(2-furyl)-7-(4-(3-isopropoxypropyl)piperazinyl)[1,2,4]triazolo[1,5-c]pyrimidine], for which, in test [1], the “Total score (catalepsy)” value stood at 8, the “Number of Animals showing remission” value came out at 10 and the inhibition in vivo at 10 mg/kg came to 82%. In addition, the inhibition at 0.1 µM at adenosine A2A receptor was found to be 46%.

Consider `Nc1nc(N2CCN(Cc3c(Cl)cccc3Cl)CC2)cc2nc(-c3ccco3)nn12` [Compound 80, 5-Amino-7-(4-(2,6-dichlorobenzyl)piperazinyl)-2-(2-furyl)[1,2,4]triazolo[1,5-c]pyrimidine hydrochloride], for which, in test [1], the “Total score (catalepsy)” value worked out at 3, the “Number of Animals showing remission” value is 10 and the inhibition in vivo at 10 mg/kg came out at 92%. Moreover, the inhibition at 0.1 µM on adenosine A2A receptor amounted to 93%.

Consider `CCCCN1CCN(c2cc3nc(-c4ccco4)nn3c(N)n2)CC1` [Compound 135, 5-Amino-7-(4-butylpiperazinyl)-2-(2-furyl)[1,2,4]triazolo[1,5-c]pyrimidine], for which, in test [1], the “Total score (catalepsy)” value is listed as 9, the “Number of Animals showing remission” value came out at 9 and the inhibition in vivo at 10 mg/kg is 80%. The inhibition at 0.1 µM on adenosine A2A receptor stood at 49%.

Consider `Nc1nc(N2CCN(CCOCc3ccccc3)CC2)cc2nc(-c3ccco3)nn12` [Compound 97, 5-Amino-7-(4-(2-benzyloxyethyl)piperazinyl)-2-(2-furyl)[1,2,4]triazolo[1,5-c]pyrimidine hydrochloride], for which, in test [1], the “Total score (catalepsy)” value was determined as 4, the “Number of Animals showing remission” value stood at 10 and the inhibition in vivo at 10 mg/kg was determined as 90%. Also, the inhibition at 0.1 µM on adenosine A2A receptor is 79%.

Turning to `Nc1nc(N2CCN(Cc3ccccn3)CC2)cc2nc(-c3ccco3)nn12` [Compound 84, 5-Amino-2-(2-furyl)-7-(4-(2-picolyl)piperazinyl)[1,2,4]triazolo[1,5-c]pyrimidine], in test [1], the “Total score (catalepsy)” value is listed as 9, the “Number of Animals showing remission” value is given as 9 and the inhibition in vivo at 10 mg/kg was 78%. In addition, the inhibition at 0.1 µM on adenosine A2A receptor stood at 63%.

As for `Nc1nc(N2CCN(Cc3ccccc3F)CC2)cc2nc(-c3ccco3)nn12` [Compound 78, 5-Amino-7-(4-(2-fluorobenzyl)piperazinyl)-2-(2-furyl)[1,2,4]triazolo[1,5-c]pyrimidine], in test [1], the “Total score (catalepsy)” value was found to be 6, the “Number of Animals showing remission” value was 10 and the inhibition in vivo at 10 mg/kg was determined as 86%. Also, on adenosine A2A receptor, the inhibition at 0.1 µM is 85%.

Take `CCCN1CCN(c2cc3nc(-c4ccco4)nn3c(N)n2)CC1` [Compound 123, 5-Amino-2-(2-furyl)-7-(4-propylpiperazinyl)[1,2,4]triazolo[1,5-c]pyrimidine]: in test [1], the “Total score (catalepsy)” value was 1, the “Number of Animals showing remission” value was determined as 10 and the inhibition in vivo at 10 mg/kg was 96%. For the same compound, on adenosine A2A receptor, the inhibition at 0.1 µM is 42%.

`Nc1nc(N2CCN(CCOCCO)CC2)cc2nc(-c3ccco3)nn12` [Compound 103, 5-Amino-2-(2-furyl)-7-(4-(2-(2-hydroxyethoxy)ethyl)piperazinyl)[1,2,4]triazolo[1,5-c]pyrimidine]: in test [1], the “Total score (catalepsy)” value is on record as 2, the “Number of Animals showing remission” value is recorded as 10 and the inhibition in vivo at 10 mg/kg is 94%. The inhibition at 0.1 µM at adenosine A2A receptor amounted to 53%.

As for `Nc1nc(N2CCN(c3ccccn3)CC2)cc2nc(-c3ccco3)nn12` [Compound 93, 5-Amino-2-(2-furyl)-7-(4-(2-pyridyl)piperazinyl)[1,2,4]triazolo[1,5-c]pyrimidine], in test [1], the “Total score (catalepsy)” value is on record as 10, the “Number of Animals showing remission” value stood at 8 and the inhibition in vivo at 10 mg/kg turned out to be 66%. Also, the inhibition at 0.1 µM on adenosine A2A receptor was 36%.

`CC(C)C(=O)c1cnc(N)n2nc(-c3ccco3)nc12` [Compound 153, 5-Amino-8-(1-oxo-2-methylpropyl)-2-(2-furyl)[1,2,4]triazolo[1,5-c]pyrimidine]: in test [1], the “Total score (catalepsy)” value was found to be 10, the “Number of Animals showing remission” value worked out at 9 and the inhibition in vivo at 10 mg/kg is 80%. Also, the inhibition at 0.1 µM on adenosine A2A receptor is 48%.

As to `COc1ccc(CCCN2CCN(c3cc4nc(-c5ccco5)nn4c(N)n3)CC2)cc1OC` [Compound 86, 5-Amino-7-(4-(3-(3,4-dimethoxyphenyl)propyl)piperazinyl)-2-(2-furyl)[1,2,4]triazolo[1,5-c]pyrimidine], in test [1], the “Total score (catalepsy)” value amounted to 13, the “Number of Animals showing remission” value was 9 and the inhibition in vivo at 10 mg/kg was 72%. In addition, the inhibition at 0.1 µM on adenosine A2A receptor stood at 83%.

`C[C@@H]1CN(c2cc3nc(-c4ccco4)nn3c(N)n2)C[C@H](C)N1Cc1ccccc1` [Compound 116, 5-Amino-7-(4-benzyl-cis-3,5-dimethylpiperazinyl)-2-(2-furyl)[1,2,4]triazolo[1,5-c]pyrimidine]: in test [1], the “Total score (catalepsy)” value came to 5, the “Number of Animals showing remission” value came to 10 and the inhibition in vivo at 10 mg/kg was 90%. Besides, on adenosine A2A receptor, the inhibition at 0.1 µM was determined as 38%.

Take `C=CCN1CCN(c2cc3nc(-c4ccco4)nn3c(N)n2)CC1` [Compound 124, 5-Amino-7-(4-allylpiperazinyl)-2-(2-furyl)[1,2,4]triazolo[1,5-c]pyrimidine]: in test [1], the “Total score (catalepsy)” value is reported as 12, the “Number of Animals showing remission” value worked out at 9 and the inhibition in vivo at 10 mg/kg worked out at 76%. Moreover, the inhibition at 0.1 µM at adenosine A2A receptor is 59%.

For `CCC(=O)c1cnc(N)n2nc(-c3ccco3)nc12` [Compound 158, 5-Amino-2-(2-furyl)-8-propionyl[1,2,4]triazolo[1,5-c]pyrimidine], in test [1], the “Total score (catalepsy)” value was determined as 23, the “Number of Animals showing remission” value came out at 8 and the inhibition in vivo at 10 mg/kg was found to be 52%. Further, on adenosine A2A receptor, the inhibition at 0.1 µM was 92%.
